Values of other authors in patent US20190314394A1, “IMMUNE-POTENTIATING DRUG NANOCARRIERS AND METHODS OF PRODUCTION AND USE THEREOF” (priority 2013, published 2019).

System: HLA-DR molecules
Details: 15 out of 16 of the most prevalent HLA-DR molecules; read-out: IC50 (high or intermediate affinity binding)

aKXVAAWTLKAAa (SEQ ID NO: 5) (AKAVAAWTLKAAA; D-alanine termini, cyclohexylalanine; MOD_RES (1)..(1) D-Alanine; MOD_RES (3)..(3) Cyclohexylalanine; MOD_RES (13)..(13) D-Alanine) [PADRE peptide variant; a=D-alanine, X=cyclohexylalanine]
IC50: < 1 µM
